Test results from patent US8362013B2, “Salt of ABT-263 and solid-state forms thereof” (AbbVie Inc., priority 2009, dated 2013).

What was measured:
[1] = stability in an oxidative environment; type: physicochemical
[2] = tested on: small-cell lung cancer (SCLC); conditions: cited from earlier work
lymphoid malignancies = conditions: cited from earlier work
[3] = tested on: pro-apoptotic effects of other chemotherapeutic agents; conditions: cited from earlier work

| SMILES | degradation in an oxidative environment [1] | single-agent activity [2] | single-agent activity (lymphoid malignancies) | potentiation of pro-apoptotic effects of other chemotherapeutic agents [3] |
| --- | --- | --- | --- | --- |
| CC1(C)CCC(c2ccc(Cl)cc2)=C(CN2CCN(c3ccc(C(=O)NS(=O)(=O)c4ccc(N[C@H](CCN5CCOCC5)CSc5ccccc5)c(S(=O)(=O)C(F)(F)F)c4)cc3)CC2)C1 [ABT-263] | susceptible to degradation | – | – | – |
| CN(C)CC[C@H](CSc1ccccc1)Nc1ccc(S(=O)(=O)NC(=O)c2ccc(N3CCN(Cc4ccccc4-c4ccc(Cl)cc4)CC3)cc2)cc1[N+](=O)[O-] [ABT-737, N-(4-(4-((4′-chloro-(1,1′-biphenyl)-2-yl)methyl)piperazin-1-yl)benzoyl)-4-(((1R)-3-(dimethylamino)-1-((phenylsulfanyl)methyl)propyl)amino)-3-nitrobenzene-sulfonamide] | – | single-agent activity | single-agent activity | potentiates |
